Results reported in ChEMBL document CHEMBL5465560, “Selectivity Literature for EUbOPEN Chemogenomic Library” (2024).
Blank lines part the entries; values can stand above or below the compound they belong to.

Columns and labels:
[1] = molecular target: Serine/threonine-protein kinase 38-like (Homo sapiens) (UniProt Q9Y2H1); assay: Selectivity interaction (ActivX KiNativ screen (kinase selectivity in THP-1 cell lysates)) EUB0000639a STK38L; assay type: subcellular; settings: lysate, at 0.2 µM
[2] = molecular target: T1, Serine/threonine-protein kinase 36 (Homo sapiens) (UniProt Q9NRP7); assay: Selectivity interaction (KinomeScan (DiscoverX)) EUB0000595a STK36; settings: at 10 µM
T1 sequence (whole entry): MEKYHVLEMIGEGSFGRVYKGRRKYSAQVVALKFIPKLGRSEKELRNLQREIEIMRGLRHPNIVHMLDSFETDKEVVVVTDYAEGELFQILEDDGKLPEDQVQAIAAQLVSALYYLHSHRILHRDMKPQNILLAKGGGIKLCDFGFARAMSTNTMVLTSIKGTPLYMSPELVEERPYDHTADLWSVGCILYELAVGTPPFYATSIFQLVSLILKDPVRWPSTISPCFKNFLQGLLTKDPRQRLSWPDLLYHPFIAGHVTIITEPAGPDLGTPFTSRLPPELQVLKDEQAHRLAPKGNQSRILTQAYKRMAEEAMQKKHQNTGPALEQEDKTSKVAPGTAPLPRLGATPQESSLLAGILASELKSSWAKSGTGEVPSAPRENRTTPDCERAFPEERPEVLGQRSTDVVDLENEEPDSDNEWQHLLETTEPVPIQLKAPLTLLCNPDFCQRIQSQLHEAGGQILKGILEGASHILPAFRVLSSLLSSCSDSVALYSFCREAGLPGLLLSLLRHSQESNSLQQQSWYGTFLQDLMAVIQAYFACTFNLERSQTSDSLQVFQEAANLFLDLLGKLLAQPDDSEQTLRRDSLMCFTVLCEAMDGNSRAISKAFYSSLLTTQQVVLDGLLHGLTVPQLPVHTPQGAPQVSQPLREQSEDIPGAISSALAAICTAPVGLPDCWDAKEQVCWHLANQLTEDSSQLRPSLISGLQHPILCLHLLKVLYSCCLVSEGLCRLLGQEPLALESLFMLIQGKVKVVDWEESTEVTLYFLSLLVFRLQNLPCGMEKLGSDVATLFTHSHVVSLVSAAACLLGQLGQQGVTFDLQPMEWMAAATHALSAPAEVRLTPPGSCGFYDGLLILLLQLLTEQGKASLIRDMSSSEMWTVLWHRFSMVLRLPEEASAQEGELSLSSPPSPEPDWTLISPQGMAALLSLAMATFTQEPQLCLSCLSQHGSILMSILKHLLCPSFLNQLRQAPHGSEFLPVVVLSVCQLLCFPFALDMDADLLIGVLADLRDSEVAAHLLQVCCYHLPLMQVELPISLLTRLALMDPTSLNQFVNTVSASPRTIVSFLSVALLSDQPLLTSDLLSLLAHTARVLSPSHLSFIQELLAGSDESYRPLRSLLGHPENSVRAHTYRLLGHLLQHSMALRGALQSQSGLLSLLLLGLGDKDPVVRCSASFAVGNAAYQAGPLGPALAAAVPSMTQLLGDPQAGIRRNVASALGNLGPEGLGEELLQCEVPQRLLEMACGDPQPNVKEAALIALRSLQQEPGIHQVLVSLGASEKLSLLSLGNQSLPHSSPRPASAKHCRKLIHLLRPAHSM

[3] = molecular target: T2, Mitogen-activated protein kinase 13 (Homo sapiens) (UniProt O15264); assay: Selectivity interaction (KinomeScan (DiscoverX)) EUB0000229b MAPK13; settings: at 10 µM
T2 sequence (whole entry): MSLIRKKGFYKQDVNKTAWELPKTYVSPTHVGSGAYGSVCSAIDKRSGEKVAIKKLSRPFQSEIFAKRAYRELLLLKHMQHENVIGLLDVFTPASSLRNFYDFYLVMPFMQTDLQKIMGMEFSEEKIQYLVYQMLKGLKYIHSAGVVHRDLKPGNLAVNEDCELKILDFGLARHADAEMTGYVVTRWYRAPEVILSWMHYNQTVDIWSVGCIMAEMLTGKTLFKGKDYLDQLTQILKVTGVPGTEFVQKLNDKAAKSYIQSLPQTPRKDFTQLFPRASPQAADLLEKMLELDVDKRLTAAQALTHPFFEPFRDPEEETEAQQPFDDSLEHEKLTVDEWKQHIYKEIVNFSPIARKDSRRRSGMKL

Serine/threonine-protein kinase 38-like (Homo sapiens), sequence (Q9Y2H1 2-464 limits assumed): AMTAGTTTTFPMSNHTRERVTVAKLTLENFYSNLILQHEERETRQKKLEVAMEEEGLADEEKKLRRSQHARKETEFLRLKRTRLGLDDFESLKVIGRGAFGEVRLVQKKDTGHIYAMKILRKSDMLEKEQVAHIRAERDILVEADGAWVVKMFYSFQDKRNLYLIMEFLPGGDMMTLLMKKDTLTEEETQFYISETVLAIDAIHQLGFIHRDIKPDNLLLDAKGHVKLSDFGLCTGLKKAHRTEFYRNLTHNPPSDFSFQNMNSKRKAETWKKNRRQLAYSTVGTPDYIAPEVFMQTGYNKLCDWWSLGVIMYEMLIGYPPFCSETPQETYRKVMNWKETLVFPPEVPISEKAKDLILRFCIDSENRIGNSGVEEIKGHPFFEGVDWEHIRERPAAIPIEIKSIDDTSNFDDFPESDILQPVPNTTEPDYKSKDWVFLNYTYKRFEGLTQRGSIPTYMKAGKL

% of inhibition [1]: 18.4%
SMILES: CC[C@@H]1[C@H](F)C(=O)N[C@@H]1COc1nccc2cc(C(N)=O)c(OC)cc12 [ZIMLOVISERTIB]

SMILES: COCC(=O)NC/C=C/c1ccc2ncnc(Nc3ccc(Oc4ccc(C)nc4)c(C)c3)c2c1 [CP-724714]
% of control [2]: 100%

SMILES: COc1cc(N(C)c2ccnc3ccc(C(F)(F)F)cc23)cc(OC)c1OC
% binding [3]: 78%
